Experimental data from article PMC11310113, “Development of a UPLC-MS/MS method for quantifying KPT-335 (Verdinexor) in feline plasma for a study of PK” (Frontiers in Veterinary Science, 2024).
Like-named read-outs stand apart in the source and are kept apart here.

Columns and labels:
[1] = parameters: method as in PMID 30143046; conditions: day 14, cited from earlier work; for AUClast (AUC) / HL_Lambda_z / Tmax: dog (n = 4)
[2] = Stability of KPT-335 in cat plasma samples (UPLC-MS/MS); assay type: in vitro ADME; conditions: for recovery at 8 h: cat
Protocol: KPT-335 working solution was added to blank plasma, LQC, MQC, and HQC samples to investigate the room-temperature stability for 2 h, freeze–thaw stability with three times, autosampler stability for 24 h, and long-term stability of 20 days at −20°C. The stability of the stock solution for 20 days was also investigated.
Given that plasma is mostly neutral or alkaline, to optimize the stability of KPT-335 at room temperature and ensure the desirable result of the sample during the detection process, we carried out further experiments. There were four groups in the experiment. The first group was the normal preparation of the sample, and the second, third, and fourth groups were samples containing 0.01, 0.05, or 0.1% formic acid, respectively. All the samples were placed at room temperature for 12 h and then processed at the same time for detection.

[3] = parameters: method as in PMID 24503695; conditions: healthy beagle dogs (n = 6), single dose 1.5 mg/kg BW p.o. after meals; cited from earlier work
[4] = Pharmacokinetic study of KPT-335 capsules in cats, single oral dose; assay type: in vivo, cat
Protocol: The recommended dose of KPT-335 for dogs is 1.5 mg/kg body weight (BW). To calculate the dose for cats, the average weight of the tested cats was substituted in the equation used for dogs, and the recommended dose was 2 mg/kg BW through body surface area (BSA) conversion ([20]). The formula was as follows: […]
where K is a constant determined for different animal species, such as a dog (11.0) and cat (8.7), and W is the BW (kg) of the animal. Km is approximated by the individual animal species taking the ratio between the mean weight (kg) and BSA (m^2), this value can be calculated using Formula 1. The average weight of the six tested cats was used in BW parameters, the dosage was calculated by Formula 2, and KPT-335 was weighed into capsules and administered to the animals. The cats were fasted for 12 h before and 2 h following drug administration. Potential adverse effects were monitored during the study. The capsules were administered orally as a single bolus to the back of the tongue via a dosing syringe, accompanied by 3–5 mL of water.
Samples of blood (1 mL) were collected from the brachial cephalic vein at 0.167, 0.333, 0.5, 0.75, 1, 1.5, 2, 4, 6, 8, 12, 24, 36, and 48 h pre- and post-oral dosing into an anticoagulant blood collection tube containig heparin sodium. Blood samples were centrifuged for 8 min at 1800 × g. The plasma layer was taken and divided evenly into two. The plasma samples were stored at −20°C until analysis (within 20 days of collection). For the pharmacokinetic parameters, the blood drug concentration-time data was analyzed by using WinNonlin software (version 8.1, United States). The elimination half-life (T1/2), the maximum plasma concentration of KPT-335 (Cmax), the time when the plasma concentration reached a maximum (Tmax), and the area under the concentration-time curve (AUC) were determined.

[5] = average of all dogs (1.5 and 1.25 mg/kg BW)
[6] = cat (n = 6), 2 mg/kg BW p.o., single dose, fasted
[7] = plasma, cats, single oral dose of capsules 2 mg/kg BW

## O=C(/C=C\n1cnc(-c2cc(C(F)(F)F)cc(C(F)(F)F)c2)n1)NNc1ccccn1 [KPT-335]
[1]; [5]
  average T1/2: 5 h
  average Tmax: 5.3 h
[1]; 1.25 mg/kg BW p.o.
  AUClast (AUC): 1.5765 µg·h/mL
  HL_Lambda_z: 5 h
  Tmax: 5.3 h
[1]; 1.5 mg/kg BW p.o.
  AUClast (AUC): 2.3468 µg·h/mL
  HL_Lambda_z: 5 h
  Tmax: 5.3 h
[2]; acidic plasma (formic acid added), room temperature, 12 h
  room temperature stability accuracy: still acceptable
[2]; plasma, 4°C, read-out: sample recovery
  recovery at 8 h: > 80%
[2]; plasma, 8 h at room temperature, read-out: sample recovery rate
  recovery at 8 h: 59 to 67.5%
[2]; plasma, light-protected, read-out: recovery rate of light-protected samples
  recovery at 8 h: 60.4 to 63.2%
[2]; plasma containing 0.1% formic acid, room temperature, 12 h
  accuracy of stable samples at room temperature: more than 85%
[2]; plasma, room temperature, 2 h, all concentrations
  room temperature stability accuracy: met the requirement of ±15%
[2]; plasma, room temperature, 8 h
  room temperature stability accuracy: did not meet the requirement of ±15%
[2]; plasma, room temperature, 24 h
  room temperature stability result: not within the requirement of ±15%
[3]
  AUCINF_obs: 1.81 ± 0.216 µg·h/mL
  AUClast (AUC0-t): 1.76 ± 0.223 µg·h/mL
  Cmax: 0.253 ± 0.0883 µg/mL
  HL_Lambda_z (T1/2): 3.88 ± 1.47 h
  Tmax: 3.83 ± 2.71 h
[4]; [6]
  AUC_%Extrap_obs: 11.32 ± 6.56%
  HL_Lambda_z: 5.16 ± 2.30 h
[4]; plasma, po, cat (n = 6), 2 mg/kg BW p.o., single dose, fasted
  MRT last: 5.46 ± 2.14 h
[4]; plasma, po, cat (n = 6), 2 mg/kg BW p.o., single dose, fasted, read-out: Lambda_z (converted)
  k el: 4.17e-05 s⁻¹
[4]; [7]
  AUC(0-inf): 1.59 ± 1 µg·h/mL
  AUC(0-t): 1.44 ± 0.965 µg·h/mL
  Cmax: 0.24 ± 0.191 µg/mL
  Tmax: 1.46 ± 0.51 h
  half-life: 5.16 ± 2.3 h
